Source: patent publication US20240360194A1, “New Peptides as Potent and Selective GIP Receptor Agonists” (Sanofi, priority 2021, published 2024)
Converted amounts (≈) assume the structure as drawn. Numbered stars: 1 amine (or outer) side, 2 acyl side, 3 side chain; on linkers, the order of the positions; unused ones are H or OH. Square brackets hold non-standard residues; d marks the D form. Side chains are listed from the residue outwards. Peptide text beside a SMILES is read from it. * marks the point of attachment. C18 diacid = O=C(O)CCCCCCCCCCCCCCCCC(=O)*; γGlu = O=C(O)[C@H](CCC(=O)[*:2])N[*:1]; dIva = CC[C@@](C)(N)C(=O)O; AEEA = NCCOCCOCC(=O)O; Aib = CC(C)(N)C(=O)O

Assays:
[1] = Solubility assessment (UHPLC-UV of supernatant, target 10 mg/ml); assay type: physicochemical
Experimental: Prior to the solubility measurement of a peptide batch, its purity was determined through UHPLC/MS.
Therefore, solutions from solid samples were prepared in a buffer system with a concentration of 10 mg/ml compound based on the previously determined % purity: • Solubility buffer system A) 100 mM phosphate buffer pH 7.4 • Solubility buffer system B) 8 mM phosphate buffer pH 7.4, 14 mg/ml propylene glycol, 5.5 mg/ml phenol • Solubility buffer system C) 100 mM phosphate buffer pH 7.4, 2.7 mg/ml m-cresol
UHPLC-UV was performed after 1 h of gentle agitation and storage at 5° C. overnight (24 h) from the supernatant, which was obtained after 15 min of centrifugation at 2500 RCF (relative centrifugal acceleration).
The different UV extinction coefficients of sample and reference peptide were calculated based on the different amino acid sequences and considered in the concentration calculation.
The analytical method used was Analytical UHPLC Method A.
Peptide samples were prepared in solubility buffer system A or C and solubility was assessed as described in Methods.

[2] = biological target: human GLP-1 receptor (hGLP-1R) (Homo sapiens, UniProt P43220); experiment: In vitro cellular cAMP assay for GLP-1 receptor efficacy (HEK-293 cell line over-expressing receptor); assay type: cell-based; conditions: HEK-293, 0.1% BSA
human GIP receptor = biological target: T1, human GIP receptor (Homo sapiens, UniProt P48546); experiment: In vitro cellular cAMP assay for GIP receptor efficacy (human adipocytes); assay type: cell-based; conditions: for EC50: read-out: hGIPR EC50; for Emax: read-out: hGIPR Emax
T1 construct: human adipocytes endogenously expressing the human GIP receptor; host or cells: human preadipocytes (Lonza) differentiated to adipocytes
T1 sequence (P48546 22-466): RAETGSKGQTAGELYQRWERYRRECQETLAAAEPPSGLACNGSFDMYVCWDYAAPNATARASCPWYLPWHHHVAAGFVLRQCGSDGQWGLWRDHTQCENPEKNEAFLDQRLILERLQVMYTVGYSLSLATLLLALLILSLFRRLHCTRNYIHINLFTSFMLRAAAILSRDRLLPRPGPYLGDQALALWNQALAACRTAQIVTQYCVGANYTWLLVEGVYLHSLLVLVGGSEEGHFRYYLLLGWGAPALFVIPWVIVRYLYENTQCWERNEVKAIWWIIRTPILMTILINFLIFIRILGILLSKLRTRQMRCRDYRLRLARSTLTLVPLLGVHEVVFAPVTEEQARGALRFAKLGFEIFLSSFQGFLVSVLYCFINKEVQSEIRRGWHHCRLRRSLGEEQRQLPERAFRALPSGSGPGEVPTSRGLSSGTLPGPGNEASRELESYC
Experimental: For this, one vial of human preadipocytes (˜10^6 cells; Lonza) was thawed in a T-75 cell culture dish. The cells were cultivated at 37° C., 5% CO2, 95% humidity in Preadipocyte Growth Medium with Supplement Mix from Promo Cell.
After 3 days, the cells were washed with PBS and 1.5 ml Trypsin, incubated for 4 min, then resuspended in medium, centrifugated for 10 min @ 300 rcf RT, resuspended again and distributed to four T-75 cell culture dishes. Again, the cells were cultivated at 37° C., 5% CO2, 95% humidity.
After 5 days, the cells were washed with PBS and 1.5 ml Trypsin, incubated for 4 min, then resuspended in medium, centrifugated for 10 min @ 300 rcf RT, resuspended again and sawn in T-75 dishes (2.5×10^6 cells per dish) in 15 ml Differentiation medium each.
The differentiation medium had the following composition: DMEM (Gibco), Ham's F10 (Gibco), 15 mM HEPES (Gibco), 3% FCS (PAA), 33 μM biotin (Sigma-Aldrich), 17 μM Pantothenate (Sigma-Aldrich), 0.1 μM human insulin (Sigma-Aldrich), 1 μM dexamethason (Sigma-Aldrich), 0.1 μM PPARgamma agonist (#R2408, Sigma-Aldrich), 0.6×Anti-Anti (#15240, ThermoFisher), 200 μM IBMX (AppliChem), and 0.01 μM L-thyroxine (Sigma-Aldrich).
After 6 days of differentiation, 5000 cells per well were dispensed on a 96-well plate (#CLS3694 from Corning®, Sigma-Aldrich). For measurement of cAMP generation, 25 μL of test compound was added to each well of the 96-well plate, followed by incubation for 30 min at room temperature.
The cAMP generated following test compound stimulation was determined using a kit from Cisbio Corp. based on HTRF (Homogenous Time Resolved Fluorescence). The cAMP assay was performed according to manufacturer's instructions (Cisbio).
The cAMP content of cells was determined using a kit from Cisbio Corp. based on HTRF (Homogenous Time Resolved Fluorescence).
After addition of HTRF reagents diluted in lysis buffer (kit components), the plates were incubated for 1 h, followed by measurement of the fluorescence ratio at 665/620 nm.

[3] = biological target: T2, human GIP receptor (hGIPR) (Homo sapiens, UniProt P48546); experiment: Binding assay, displacement of [125I]GIP from HEK-293 membranes over-expressing GIPR (SPA); conditions: [125I]GIP displacement
T2 sequence (P48546 22-466): T1 sequence (P48546 22-466)
Experimental: (1) Preparation of Membranes from HEK-293 Cells Over-Expressing GIPR or GLP-1R
HEK-293 cells recombinantly over-expressing GIPR or GLP-1R were grown to 50% confluency, washed with warm 1×PBS (Gibco) and detached in HEPES/EDTA-buffer (100 mM HEPES pH 7.5, 5 mM EDTA). Cells were harvested by centrifugation at 4° C. and 3000×g and the pellets were stored at −80° C. until further processing.
After thawing on ice, pellets were resuspended in HEPES/EDTA-buffer and homogenized on ice for 1 min using Ultra-Turray T25. After subsequent sonification the cell debris was removed by centrifugation at 1000×g and 4° C. Supernatants were then ultra-centrifuged at 100000×g and 4° C. under vacuum for 30 min. Pellets were resuspended in HEPES/EDTA/NaCl-buffer (20 mM HEPES, 1 mM EDTA, 150 mM NaCl; add 1 Complete Mini Protease inhibitor cocktail to 10 ml buffer) and protein content was determined via BCA-Protein assay.
(2) Measurement of Binding Activity of Test Compounds to Human GIPR or GLP-1R

human GLP-1 receptor (hGLP-1R), sequence (P43220 24-463): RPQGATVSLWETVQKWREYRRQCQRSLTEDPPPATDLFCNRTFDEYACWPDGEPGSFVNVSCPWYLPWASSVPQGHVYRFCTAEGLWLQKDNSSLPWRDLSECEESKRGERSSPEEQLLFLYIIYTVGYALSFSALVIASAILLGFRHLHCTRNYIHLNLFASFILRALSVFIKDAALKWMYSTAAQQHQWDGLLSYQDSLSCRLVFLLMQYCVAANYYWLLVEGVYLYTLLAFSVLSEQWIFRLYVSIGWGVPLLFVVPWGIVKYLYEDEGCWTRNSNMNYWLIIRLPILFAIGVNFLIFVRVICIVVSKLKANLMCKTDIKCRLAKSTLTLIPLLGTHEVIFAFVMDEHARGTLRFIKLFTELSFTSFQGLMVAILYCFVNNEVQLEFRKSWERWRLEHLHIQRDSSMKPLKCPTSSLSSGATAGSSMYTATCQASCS

For `CC[C@H](C)[C@H](NC(=O)[C@H](CCCNC(=N)N)NC(=O)[C@H](CC(=O)O)NC(=O)[C@H](CCCCNC(=O)COCCOCCNC(=O)COCCOCCNC(=O)CC[C@H](NC(=O)CCCCCCCCCCCCCCCCC(=O)O)C(=O)O)NC(=O)C(C)(C)NC(=O)[C@@H](NC(=O)[C@H](CO)NC(=O)[C@H](CC(C)C)NC(=O)[C@H](CC(=O)O)NC(=O)[C@H](CO)NC(=O)[C@@H](NC(=O)[C@@](C)(CC)NC(=O)[C@@H](NC(=O)CNC(=O)[C@H](CCC(=O)O)NC(=O)C(C)(C)NC(=O)[C@@H](N)Cc1ccc(O)cc1)[C@@H](C)O)[C@@H](C)CC)[C@@H](C)CC)C(=O)N[C@@H](Cc1c[nH]cn1)C(=O)N[C@@H](CCC(N)=O)C(=O)NC(C)(C)C(=O)N[C@@H](CCC(=O)O)C(=O)N[C@@H](Cc1ccccc1)C(=O)N[C@H](C(=O)N[C@@H](CCC(=O)O)C(=O)N[C@@H](Cc1c[nH]c2ccccc12)C(=O)N[C@@H](CC(C)C)C(=O)N[C@@H](CC(C)C)C(=O)N[C@@H](C)C(=O)N[C@@H](CCC(N)=O)C(=O)NCC(=O)N1CCC[C@H]1C(=O)N[C@@H](CO)C(=O)N[C@@H](CO)C(=O)NCC(=O)N[C@@H](C)C(=O)N1CCC[C@H]1C(=O)N1CCC[C@H]1C(=O)N1CCC[C@H]1C(=O)N[C@@H](CO)C(N)=O)[C@@H](C)CC` [SEQ ID NO: 23, H2N-Y-Aib-E-G-T-Iva-I-S-D-L-S-I-Aib-K[{AEEA}2-gGlu-C18OH]-D-R-I-H-Q-Aib-E-F-I-E-W-L-L-A-Q-G-P-S-S-G-A-P-P-P-S-NH2] (H-Y[Aib]EGT[dIva]ISDLSI[Aib]K([AEEA-AEEA-γGlu-C18 diacid])DRIHQ[Aib]EFIEWLLAQGPSSGAPPPS-NH2), the solubility ([1]; pH 7.4, Soluble amount) was 6500 µg/mL (≈ 1320 µM), the EC50 [2] was greater than 10 nM and the EC50 (human GIP receptor) was 0.2 nM. The Emax (human GIP receptor) was 91% and the IC50 [3] was 0.2 nM.
Work on `CC[C@H](C)[C@H](NC(=O)[C@H](Cc1ccccc1)NC(=O)[C@H](CCC(=O)O)NC(=O)[C@H](CCC(=O)O)NC(=O)[C@H](CCC(N)=O)NC(=O)[C@H](Cc1c[nH]cn1)NC(=O)[C@@H](NC(=O)[C@H](CCCNC(=N)N)NC(=O)[C@H](CC(=O)O)NC(=O)[C@H](CCCCNC(=O)COCCOCCNC(=O)COCCOCCNC(=O)CC[C@H](NC(=O)CCCCCCCCCCCCCCCCC(=O)O)C(=O)O)NC(=O)C(C)(C)NC(=O)[C@@H](NC(=O)[C@H](CO)NC(=O)[C@H](CC(C)C)NC(=O)[C@H](CC(=O)O)NC(=O)[C@H](CO)NC(=O)[C@@H](NC(=O)[C@H](Cc1ccccc1)NC(=O)[C@@H](NC(=O)CNC(=O)[C@H](CCC(=O)O)NC(=O)C(C)(C)NC(=O)[C@@H](N)Cc1ccc(O)cc1)[C@@H](C)O)[C@@H](C)CC)[C@@H](C)CC)[C@@H](C)CC)C(=O)N[C@@H](CCC(=O)O)C(=O)N[C@@H](Cc1c[nH]c2ccccc12)C(=O)N[C@@H](CC(C)C)C(=O)N[C@@H](CC(C)C)C(=O)N[C@@H](C)C(=O)N[C@@H](CCC(N)=O)C(=O)N[C@@H](CCC(=O)O)C(=O)N1CCC[C@H]1C(=O)N[C@@H](CO)C(=O)N[C@@H](CO)C(=O)NCC(=O)N[C@@H](C)C(=O)N1CCC[C@H]1C(=O)N1CCC[C@H]1C(=O)N1CCC[C@H]1C(=O)N[C@@H](CO)C(=O)O` [SEQ ID NO: 28, H2N-Y-Aib-E-G-T-F-I-S-D-L-S-I-Aib-K[{AEEA}2-gGlu-C18OH]-DRIHQEEFIEWLLAQEPSSGAPPPS-OH] (H-Y[Aib]EGTFISDLSI[Aib]K([AEEA-AEEA-γGlu-C18 diacid])DRIHQEEFIEWLLAQEPSSGAPPPS-OH) yielded a Soluble amount ([1]; 24 h, pH 7.4) greater than 9.0 mg/mL, a solubility at 24 h ([1]; pH 7.4, Soluble amount) greater than 9400 µg/mL and an EC50 [2] greater than 10 nM. It also gave an EC50 (human GIP receptor) of 0.5 nM, an Emax (human GIP receptor) of 103% and an IC50 [3] of 0.8 nM.
In the case of `CC[C@H](C)[C@H](NC(=O)[C@H](CCCNC(=N)N)NC(=O)[C@H](CC(=O)O)NC(=O)[C@H](CCCCNC(=O)COCCOCCNC(=O)COCCOCCNC(=O)CC[C@H](NC(=O)CCCCCCCCCCCCCCCCC(=O)O)C(=O)O)NC(=O)C(C)(C)NC(=O)[C@@H](NC(=O)[C@H](CO)NC(=O)[C@H](CC(C)C)NC(=O)[C@H](CC(=O)O)NC(=O)[C@H](CO)NC(=O)[C@@H](NC(=O)[C@H](Cc1ccccc1)NC(=O)[C@@H](NC(=O)CNC(=O)[C@H](CCC(=O)O)NC(=O)C(C)(C)NC(=O)[C@@H](N)Cc1ccc(O)cc1)[C@@H](C)O)[C@@H](C)CC)[C@@H](C)CC)C(=O)N[C@@H](Cc1c[nH]cn1)C(=O)N[C@@H](CCC(N)=O)C(=O)NC(C)(C)C(=O)N[C@@H](CCC(=O)O)C(=O)N[C@@H](Cc1ccccc1)C(=O)N[C@H](C(=O)N[C@@H](CCC(=O)O)C(=O)N[C@@H](Cc1c[nH]c2ccccc12)C(=O)N[C@@H](CC(C)C)C(=O)N[C@@H](CC(C)C)C(=O)N[C@@H](C)C(=O)N[C@@H](CCC(N)=O)C(=O)N[C@@H](CCCNC(=N)N)C(=O)N1CCC[C@H]1C(=O)N[C@@H](CO)C(=O)N[C@@H](CO)C(=O)NCC(=O)N[C@@H](C)C(=O)N1CCC[C@H]1C(=O)N1CCC[C@H]1C(=O)N1CCC[C@H]1C(=O)N[C@@H](CO)C(N)=O)[C@@H](C)CC` [SEQ ID NO: 30, H2N-Y-Aib-E-G-T-F-I-S-D-L-S-I-Aib-K[{AEEA}2-gGlu-C18OH]-D-R-I-H-Q-Aib-E-F-I-E-W-L-L-A-Q-R-P-S-S-G-A-P-P-P-S-NH2] (H-Y[Aib]EGTFISDLSI[Aib]K([AEEA-AEEA-γGlu-C18 diacid])DRIHQ[Aib]EFIEWLLAQRPSSGAPPPS-NH2), the solubility at 24 h ([1]; pH 7.4, Soluble amount) is reported as 8400 µg/mL (≈ 1660 µM), the EC50 [2] is reported as greater than 10 nM and the EC50 (human GIP receptor) is reported as 0.5 nM. It also gave an Emax (human GIP receptor) of 138% and an IC50 [3] of 0.1 nM.
